Data on two molecules can be found in patent US4992581A, “Novel methods of manufacturing thromboxane A2 antagonists” (National Research Development Corporation, priority 1988, dated 1991).

The test system of test [1] is U-46619-induced platelet aggregation (rat platelet rich plasma). Put plainly: Inhibition of U-46619-induced platelet aggregation in vitro in rat platelet rich plasma. The note with it: rat PRP. In kind it is cell-based. As to the method: Platelet rich plasma (PRP) was prepared from heparanized whole blood (5 units/ml) drawn from the abdominal aorta of ether anesthetized rats. PRP was prepared by centrifugation (Sorvall RC2B, DuPont, Wilmington, Del.) of the whole blood at 150×g for 10 min. Platelet poor plasma (PPP) was prepared by centrifugation at 1200×g for 20 min. Aliquots of PRP and PPP were used to standardize the aggregometer (Payton, Buffalo, N.Y., model 300B) with the recorder (Riken Denshi 2 channel recorder, Payton, model SP-H5P) for measurement of minimum and maximum light transmittance, respectively.
Platelet aggregation was measured as an increase in light transmittance. PRP (390 μl aliquot 5 μl compound vehicle) was preincubated for 1 min. at 37° C., with stirring at 900 rpm in the aggregometer. […] Amount of aggregation was measured by grids on the strip chart.
Compounds were dissolved in either ethanol (ETOH) or Na2 CO3 (0.1 M) and preincubated at the desired concentration in PRP for 1 min. at 37° C. with stirring. […] Dose response curves were generated and IC50 's calculated by linear regression.

Another test deals with washed human platelets. Put plainly: Analysis of partial agonism (human washed platelets). The note with it: 5 and 10 min. incubation. In kind it is cell-based. As to the method:
Sixty ml of blood were drawn into 1/10 volume of CCD (100 mM Na Citrate and 136 mM glucose, pH 6.5 with HCl) and PRP prepared as described above. PRP was placed on ice for 15 min. One half of the volume of CCD was added and recentrifuged. The platelet pellet was gently resuspended in 1/2 the original volume of PRP in a 0° C. modified Tangen-Hepes-BSA buffer (145 mM NaCl, 5 mM KCl, 0.05 mM CaCl2, 0.1 mM MgCl2, 11 mM glucose, 15 mM Hepes, 1 mg/ml bovine serum albumin, pH adjusted to 7.4 with NaOH). The resuspended platelets were incubated undisturbed at 37° C. for 30 min. After incubation a platelet count was determined and adjusted to 3×10^8 cells/ml with the Tangen-Hepes-BSA buffer.
425 μl of the washed human platelet suspension was incubated in the aggregometer in the presence of 16 mM CaCl2 (50 μl) and SC-46985 for 5 and 10 min. […] (In a study similar to (a) above, aliquots of human washed platelets were incubated with various concentrations of SC-46985 and U-46619 to determine dose-related inhibition of aggregation).

Structures are written as SMILES.

As for `CC(=NNC(=S)Nc1ccccc1)[C@@H]1[C@H]2CC[C@H](C2)[C@H]1C/C=C\CCCC(=O)O` (relative stereo) [SC-44161, (±)7-[3α[[(Phenylamino)thioxomethyl]hydrazono]ethyl]1α,4α-bicyclo[2.2.1]hept-2β-yl]-5Z-heptenoic acid], in test [1] (Na Carbonate vs ETOH vehicle), the “fold more potent in aqueous solution than in ethanol” value was 5-10 fold. This molecule displayed an IC50 in test [1] (Rattus norvegicus, Platelet, vehicle ETOH) of 260 nM.
As for `CC(=NNC(=S)Nc1ccccc1)[C@H]1[C@@H]2CC[C@@H](C2)[C@@H]1C/C=C\CCCC(=O)O` [SC-46985], the partial agonist activity entry in the test with washed human platelets is reported as “lack of partial agonist activity”. Moreover, in the test with washed human platelets (no U-46619), the “shape change or aggregation” value is on record as “no evidence of shape change or aggregation”.
